Measurements from ChEMBL document CHEMBL1201862, “PubChem BioAssay data set” (2004).
Values joined by “and” are separate entries in the source; they are usually repeats but may differ in a detail not shown here. Equal entries are not always repeated. Active and inactive are the calls of the source.

Key:
[1] = molecular target: T1, Ubiquitin-conjugating enzyme E2 N (Homo sapiens, UniProt P61088); format: functional;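 further: Dose-response confirmation in a TR-FRET assay detecting UBC13-driven polyubiquitin chain formation, inhibition measured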
T1 sequence (P61088 whole entry): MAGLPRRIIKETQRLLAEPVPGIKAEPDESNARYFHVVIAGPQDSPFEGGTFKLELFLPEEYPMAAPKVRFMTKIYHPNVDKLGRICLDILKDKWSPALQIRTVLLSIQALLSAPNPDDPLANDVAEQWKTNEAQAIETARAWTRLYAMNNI

[2] = molecular target: T2, Heat shock factor protein 1 (Mus musculus, UniProt P38532); assay: enhancement of HSF1-driven luciferase signal – cell-based, NIH3T3, luminescence, dose retest, confirmation (AID 435004); format: functional;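 further: stress induced by proteasome inhibitor MG132 added 30 min after compound; luciferase reporter driven by HSF1 response element in NIH3T3 cells; actives raise luminescence as potentiators of the MG132 stress response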
T2 sequence (P38532 whole entry): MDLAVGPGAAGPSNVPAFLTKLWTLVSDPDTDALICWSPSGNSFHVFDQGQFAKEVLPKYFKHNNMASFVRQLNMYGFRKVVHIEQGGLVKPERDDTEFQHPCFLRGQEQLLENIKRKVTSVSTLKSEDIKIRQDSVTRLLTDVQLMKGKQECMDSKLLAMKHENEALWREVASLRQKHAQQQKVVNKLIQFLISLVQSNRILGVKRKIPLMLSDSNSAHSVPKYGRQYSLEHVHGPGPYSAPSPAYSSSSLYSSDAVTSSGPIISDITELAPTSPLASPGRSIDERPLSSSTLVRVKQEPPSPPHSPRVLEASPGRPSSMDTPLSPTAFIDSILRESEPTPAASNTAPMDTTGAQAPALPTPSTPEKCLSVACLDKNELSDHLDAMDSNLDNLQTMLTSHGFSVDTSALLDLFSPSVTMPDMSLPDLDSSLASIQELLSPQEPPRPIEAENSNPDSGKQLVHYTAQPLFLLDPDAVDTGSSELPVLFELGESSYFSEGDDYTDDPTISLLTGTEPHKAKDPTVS

[3] = fluconazole-exposed Candida albicans growth modulators – fluorescence, retest, confirmation (AID 2467); format: functional, cell-based
[4] = NIH-3T3 fibroblast cytotoxicity, dose response, cytotoxicity control, cell-based, fluorescence, Alamar Blue, secondary assay (AID 2327); format: functional;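 further: NIH-3T3 mouse fibroblasts cultured with fluconazole at 8 µg/mL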
[5] = molecular target: Cytochrome P450 3A4 (Homo sapiens, UniProt P08684);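 further: CYP3A4 tested as one member of a cytochrome P450 panel screen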
[6] = Trypanosoma cruzi growth suppression in host cells – NIH3T3 host cells, beta-gal luminescence, confirmation (AID 2044); format: functional, cell-based;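 further: intracellular parasites grown in NIH/3T3 mouse fibroblasts as host cells; luminescent beta-galactosidase reporter signal from transgenic T. cruzi replicating inside host cells; inhibitors lower the luminescence signal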
[7] = NIH3T3 cell viability loss – ATP luminescence, mouse fibroblasts, counter-screen, dose response (AID 2010); format: functional, cell-based;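 further: cells exposed to compound for about 90 hours before reading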
[8] = molecular target: Paired box protein Pax-8 (Homo sapiens, UniProt Q06710); assay: PAX8 transcriptional activity inhibition in RMG-I – RMG-I cells, luciferase, cherry-pick, dose response (AID 687027); format: functional, cell-based;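 further: luciferase reporter driven by Pax8 target thyroperoxidase promoter measured by SteadyGlo luminescence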
[9] = molecular target: Cytochrome P450 2C19 (Homo sapiens, UniProt P33261); assay: Cytochrome panel assay with activity outcomes. Panel member name: p450-cyp2c19 Compounds with AC50 equal or less than 10 uM are considered active; format: functional; settings: read-out: AC50
[10] = molecular target: Cytochrome P450 2C9 (Homo sapiens, UniProt P11712)
[11] = molecular target: T3, Cytochrome P450 1A2 (Homo sapiens, UniProt P05177);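 further: PubChem cytochrome P450 panel assay, CYP1A2 panel member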
T3 sequence (P05177 whole entry): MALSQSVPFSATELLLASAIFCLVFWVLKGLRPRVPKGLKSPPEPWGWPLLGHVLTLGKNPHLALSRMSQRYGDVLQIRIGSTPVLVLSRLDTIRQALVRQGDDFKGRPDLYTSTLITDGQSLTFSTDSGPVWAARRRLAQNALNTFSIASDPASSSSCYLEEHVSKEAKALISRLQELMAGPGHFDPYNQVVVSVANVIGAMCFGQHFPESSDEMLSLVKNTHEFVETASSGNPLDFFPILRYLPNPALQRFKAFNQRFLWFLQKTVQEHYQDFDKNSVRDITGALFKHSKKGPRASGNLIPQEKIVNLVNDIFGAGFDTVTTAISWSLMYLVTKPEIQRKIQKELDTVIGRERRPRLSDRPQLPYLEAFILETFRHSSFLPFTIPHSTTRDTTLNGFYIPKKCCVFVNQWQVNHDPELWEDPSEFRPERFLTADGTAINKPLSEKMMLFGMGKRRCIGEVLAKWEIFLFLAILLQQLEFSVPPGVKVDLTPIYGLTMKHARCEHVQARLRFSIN

[12] = test system: Streptococcus sp. 'group A'; assay: Streptococcus pyogenes SK(-)GAS viability under kanamycin – luminescence, BacTiterGlo, confirmation, counter-screen for streptokinase expression inhibitor project, dose response (AID 1900); format: functional, organism-based
[13] = test system: Streptococcus; assay: GAS UMAA2166 growth inhibition – luminescence, BacTiterGlo, counter-screen for streptokinase expression inhibitor project, dose response (AID 1915); format: functional, organism-based;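 further: potency for reduction of bacterial viability or growth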
[14] = reduction of Shn3 3'UTR-driven luciferase in osteoblasts – cell-based, Clone20 osteoblasts, firefly luciferase, cherry-picked, dose response (AID 624132); format: functional;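 further: firefly luciferase luminescence from reporter carrying the Shn3 3'UTR in osteoblasts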
[15] = Luminescence Cell-Based Dose Response HTS to Identify Activators of Luciferase Translation or Activity in H4 […] Cells. [Related pubchem assays: 1829 (Project Summary), 1814 (Primary HTS)]; format: functional
[16] = test system: H4; assay: Luminescence Cell-Based Dose Response HTS to Identify Activators of 5'UTR Stem-Loop Driven Prion Protein mRNA Translation in H4 Neuroglioblastoma Cells. [Related pubchem assays: 1829 (Project Summary), 1814 (Primary HTS)]; format: functional; settings: Homo sapiens
[17] = test system: INS1; assay: INS-1E survival protection against cytokine death – cell-based, luminescence, retest, dose response (AID 449756); format: functional; settings: Rattus norvegicus;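 further: cell death triggered by IL-1 beta plus TNF-alpha plus IFN-gamma mixture; protective hits raise ATP signal compared with cytokine alone wells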

Sequence of Cytochrome P450 3A4 (P08684 whole entry): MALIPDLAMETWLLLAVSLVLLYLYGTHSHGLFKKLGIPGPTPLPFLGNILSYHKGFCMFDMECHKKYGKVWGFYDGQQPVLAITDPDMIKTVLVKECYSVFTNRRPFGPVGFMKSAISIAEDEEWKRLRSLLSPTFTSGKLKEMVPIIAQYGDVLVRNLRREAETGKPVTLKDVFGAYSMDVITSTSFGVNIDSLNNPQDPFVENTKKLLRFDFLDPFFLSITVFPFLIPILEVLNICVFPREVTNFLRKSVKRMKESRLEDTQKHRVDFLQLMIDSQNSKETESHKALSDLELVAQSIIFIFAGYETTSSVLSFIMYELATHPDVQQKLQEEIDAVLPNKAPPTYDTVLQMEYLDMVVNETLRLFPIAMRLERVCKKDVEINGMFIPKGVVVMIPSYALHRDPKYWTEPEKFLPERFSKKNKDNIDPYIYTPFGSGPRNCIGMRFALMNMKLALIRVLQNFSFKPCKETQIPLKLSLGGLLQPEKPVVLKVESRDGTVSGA
Sequence of Cytochrome P450 2C19 (P33261 whole entry): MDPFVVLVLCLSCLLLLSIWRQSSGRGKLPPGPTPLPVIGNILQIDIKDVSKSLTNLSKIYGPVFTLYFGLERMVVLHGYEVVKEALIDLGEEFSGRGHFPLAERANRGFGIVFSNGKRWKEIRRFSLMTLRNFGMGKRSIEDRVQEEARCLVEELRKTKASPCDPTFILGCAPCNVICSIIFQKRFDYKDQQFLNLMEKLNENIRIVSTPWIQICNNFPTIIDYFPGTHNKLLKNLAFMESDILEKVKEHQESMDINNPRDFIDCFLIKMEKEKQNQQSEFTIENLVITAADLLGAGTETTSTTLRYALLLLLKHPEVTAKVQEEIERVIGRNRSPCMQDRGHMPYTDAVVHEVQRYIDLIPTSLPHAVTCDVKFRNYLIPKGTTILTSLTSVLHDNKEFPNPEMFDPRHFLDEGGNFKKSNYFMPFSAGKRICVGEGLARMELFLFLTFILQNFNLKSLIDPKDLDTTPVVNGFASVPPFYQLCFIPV
Sequence of Cytochrome P450 2C9 (P11712 whole entry): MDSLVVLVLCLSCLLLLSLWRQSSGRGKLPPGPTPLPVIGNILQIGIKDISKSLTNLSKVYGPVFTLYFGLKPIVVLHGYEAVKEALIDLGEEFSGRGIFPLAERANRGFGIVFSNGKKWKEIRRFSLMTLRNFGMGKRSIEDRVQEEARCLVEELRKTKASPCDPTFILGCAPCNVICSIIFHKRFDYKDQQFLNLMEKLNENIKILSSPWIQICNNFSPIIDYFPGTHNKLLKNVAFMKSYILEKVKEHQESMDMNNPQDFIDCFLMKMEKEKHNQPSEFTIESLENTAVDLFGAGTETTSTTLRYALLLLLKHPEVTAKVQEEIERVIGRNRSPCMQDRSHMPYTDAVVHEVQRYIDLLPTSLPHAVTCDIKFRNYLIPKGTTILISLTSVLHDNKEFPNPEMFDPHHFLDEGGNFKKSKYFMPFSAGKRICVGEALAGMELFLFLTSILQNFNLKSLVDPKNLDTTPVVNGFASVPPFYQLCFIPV
Sequence of Paired box protein Pax-8 (Q06710 whole entry): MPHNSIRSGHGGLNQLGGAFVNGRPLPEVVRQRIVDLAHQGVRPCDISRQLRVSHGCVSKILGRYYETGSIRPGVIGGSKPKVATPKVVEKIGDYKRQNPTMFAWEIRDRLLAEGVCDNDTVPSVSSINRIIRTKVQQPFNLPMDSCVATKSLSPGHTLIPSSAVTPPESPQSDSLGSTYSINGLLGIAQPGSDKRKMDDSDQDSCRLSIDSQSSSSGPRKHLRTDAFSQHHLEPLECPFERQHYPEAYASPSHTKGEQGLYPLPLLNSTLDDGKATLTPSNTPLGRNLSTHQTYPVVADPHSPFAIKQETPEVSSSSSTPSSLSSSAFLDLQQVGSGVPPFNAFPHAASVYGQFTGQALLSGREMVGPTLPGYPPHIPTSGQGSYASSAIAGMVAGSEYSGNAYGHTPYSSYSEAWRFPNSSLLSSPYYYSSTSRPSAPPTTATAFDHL

## Cc1cccc(N(C(=O)c2snc(C(N)=O)c2N)C(C(=O)NCC2CCCO2)c2c[nH]c3ccccc23)c1 (stereo unspecified)
[1]
  IC50: > 20 µM (inactive)

## Cc1nn(C)cc1/C=N\NC(=O)c1ccc2c(c1)c(C)c(C)n2Cc1ccccc1
[2]
  EC50: 67.7 µM (active)

## O=C(COC(=O)Cn1cnc2ccccc2c1=O)NCc1ccccc1Cl
[1]
  IC50: > 20 µM (inactive)

## CCN(CC)c1ccc(/C=C/C(=O)c2cccnc2)cc1
[3]
  EC50: 0.065 µM (active)
[4]
  EC50: > 150 µM (inactive)

## Cc1cc(C)cc(-n2nnnc2-c2cn(C)nc2C(F)(F)F)c1
[5]
  AC50: 15.8 µM (inconclusive)

## Cc1ccccc1OCC(O)CN1CCN(CCN2C(=O)c3cccc4cccc(c34)C2=O)CC1 (stereo unspecified)
[6]
  EC50: 0.851 µM (active)
[1]
  IC50: > 20 µM (inactive)
[7]
  EC50: > 60 µM (inconclusive)

## CS(=O)(=O)N1CCC2(CCCN(C(=O)Nc3cccc(C#N)c3)C2)CC1
[5]
  AC50: 25.1 µM (inconclusive)

## COc1cc(-c2nnc(NC(=O)c3ccc(S(=O)(=O)N4CCOCC4)cc3)o2)cc(OC)c1OC
[3]
  EC50: 5.71 µM (active)
[4]
  EC50: > 160 µM (inactive)

## CN1c2ccc(C#Cc3cccnc3)cc2[C@@H]2[C@@H](CCN2C(=O)Cc2cccnc2)[C@@H]1CO
[8]
  AC50: 57.2 µM (active)

## Cc1ccc(NC(=O)c2sc(N)nc2-c2ccc([N+](=O)[O-])cc2)c(C)c1
[2]
  EC50: > 260 µM (inactive)

## C/C(CC(=O)NCc1ccco1)=N\NC(=O)Cc1ccc(Cl)cc1
[9]
  AC50: 22.4 µM (inconclusive)
[10]
  AC50: 25.1 µM (inconclusive)
[5]
  AC50: 15.8 µM (inconclusive)
[11]
  AC50: 20 µM (inconclusive)

## Oc1ccc(Cl)cc1Nc1nc(NCC2CCCO2)c2ccccc2n1 (stereo unspecified)
[1]
  IC50: > 20 µM (inactive)

## Cc1nnc(SCC2=C(C(=O)O)N3C(=O)C(NC(=O)Cn4ncc(Cl)c4C)C3SC2)s1 (stereo unspecified)
[12]
  EC50: < 0.06 µM (active)
[13]
  EC50: 0.117 µM (active)

## COc1ccc(NC(=O)CCOc2cc(C)ccc2C)cc1S(=O)(=O)N1CCCCC1
[14]
  AC50: 10.4 µM (active)

## Cc1ccccc1Cn1c(-c2cncs2)nc2ccccc21
[2]
  EC50: > 260 µM (inactive)

## CCn1c(=O)n(CC)c2cc(S(=O)(=O)Nc3ccccc3C)c(C)cc21
[2]
  EC50: > 260 µM (inactive)

## COc1cc(NC(=O)c2cc([N+](=O)[O-])ccc2Br)ccc1NC(=O)c1ccco1
[2]
  EC50: 9.95 µM (active)

## COc1ccc(Cc2nn3c(O)cc(C(C)C)nc3c2-c2ccccc2)cc1
[12]
  EC50: 1.78 µM (active)
[13]
  EC50: 4.68 µM (active)

## O=C(CC12CCC(CC1)C2)NCc1ccc2c(c1)OCO2
[2]
  EC50: > 260 µM (inactive)

## Cc1ccc(-c2nnc(N(C)C(=O)c3cccnc3)s2)cc1
[9]
  AC50: 3.16 µM (inconclusive)
[5]
  AC50: 17.8 µM (inconclusive)
[11]
  AC50: 10 µM (inconclusive)

## COc1ccc(CN2CN=C(Nc3nc4ccccc4s3)NC2)cc1
[10]
  AC50: 20 µM (inconclusive)
[5]
  AC50: 10 µM (inconclusive)

## CN(C)c1nc(N)c(C(=O)NC(=N)N)nc1Cl
[5]
  AC50: 10 µM (inconclusive)

## CCC/C=C(\CCC)C(NS(=O)(=O)c1ccc(C(F)(F)F)cc1)c1ccc(-c2ccccc2)cc1 (stereo unspecified)
[5]
  AC50: 3.98 µM (inconclusive)

## CC(C)NC(=Nc1ccc(Cl)cc1)c1cccnc1
[9]
  AC50: 6.31 µM (inconclusive)
[5]
  AC50: 22.4 µM (inconclusive)

## CCN1CCN(c2cc(C)c3cc(NC(=S)N4CCN(c5ccc(F)cc5)CC4)ccc3n2)CC1
[1]
  IC50: > 20 µM (inactive)

## COC(=O)c1cc(OC)c(OC)cc1NC(=O)CSc1ccccc1
[10]
  AC50: 20 µM (inconclusive)
[5]
  AC50: 15.8 µM (inconclusive)

## COc1ccc(C2CC(C(F)(F)F)n3nc(C(=O)N(C)Cc4cn(C)nc4C)c(Cl)c3N2)cc1 (stereo unspecified)
[9]
  AC50: 17.8 µM (inconclusive)
[10]
  AC50: 17.8 µM (inconclusive)

## COCCCn1c(=S)[nH]c2ncccc2c1=O
[9]
  AC50: 0.501 µM (inconclusive)
[10]
  AC50: 0.00562 µM (inconclusive)

## COC(=O)[C@@H]1[C@@H](O)[C@@]2(O)c3c(OC)cc(OC)cc3O[C@@]2(c2ccc(OC)cc2)[C@H]1c1ccccc1
[5]
  AC50: 10 µM (inconclusive)

## CC(=O)O[C@H]1CC[C@H]2[C@@H]3CC[C@H]4[C@@H](O)[C@H](O)CC[C@]4(C)[C@H]3CC[C@]12C
[14]
  AC50: > 70 µM (inactive)

## C=CCN1CC[C@@]23c4c5ccc(O)c4O[C@H]2/C(=N\N=C2/CC[C@@]4(O)[C@H]6Cc7ccc(O)c8c7[C@@]4(CCN6CC=C)[C@@H]2O8)CC[C@]3(O)[C@@H]1C5
[5]
  AC50: 31.6 µM (inconclusive) and 25.1 µM (inconclusive)

## COC(=O)C1=C(C)N(Cc2ccccc2)C(NCCc2ccccn2)=N[C@H]1c1cccc(C(F)(F)F)c1
[1]
  IC50: > 20 µM (inactive)

## C[C@@]1(C(NC(=O)Cc2ccccc2)c2ccc(-c3ccccc3)cc2)C[C@H]1C1CCCCC1 (stereo partly specified)
[5]
  AC50: 15.8 µM (inconclusive)

## CCCn1c(=N)n(CC(=O)c2ccc([N+](=O)[O-])cc2)c2ccccc21
[3]
  EC50: > 38 µM (not active)
[4]
  EC50: 10.5 µM (active)

## CN(C)CC(O)COc1cc2ccccc2cc1C(=O)N1CCCCC1 (stereo unspecified)
[4]
  EC50: > 150 µM (inactive)

## C#CCOCCOCCOCCNc1nc(N2CCN(C(=O)C([C@@H](C)O)n3cc([C@@H](N)CCCCN)nn3)CC2)nc(N2CCN(C(=O)C([C@@H](C)O)n3cc([C@@H](N)CCCCN)nn3)CC2)n1 (stereo partly specified)
[1]
  IC50: > 20 µM (inactive)

## COCCNc1ccnc(-c2c(C)noc2C)n1
[5]
  AC50: 31.6 µM (inconclusive)

## COc1ccc(/C=C2\OC(=O)c3c(OC)cccc32)cc1OC
[15]
  EC50: 7.38 µM (active)
[16]
  EC50: 22.4 µM (active)
[5]
  AC50: 10 µM (inconclusive)

## Oc1ccc(Cl)cc1C1=NNC(c2ccc(Cl)cc2)C1 (stereo unspecified)
[12]
  EC50: 2.78 µM (active)
[13]
  EC50: 5.5 µM (active)

## COc1ccc(NC(=O)CSc2nc(O)cc(=O)n2-c2ccc(OC)cc2)cc1
[12]
  EC50: 13.9 µM (active)
[13]
  EC50: 26 µM (inconclusive)

## O=C(N/N=C/c1ccc[nH]1)c1cc2ccccc2cc1O
[3]
  EC50: > 38 µM (not active)
[4]
  EC50: > 160 µM (inactive)

## O=C(Nc1nccs1)c1cc2c(s1)-c1ccccc1OC2
[16]
  EC50: > 120 µM (not active)

## COc1ccc(/C=N/NC(=O)c2ccc(-c3ccccc3)cc2)cc1O
[3]
  EC50: 0.036 µM (active)
[4]
  EC50: > 150 µM (inactive)

## Cc1cc(C(=O)c2ccc3ccccc3c2)c(C)o1
[17]
  AC50: > 260 µM (inactive)

## O=C(Nc1ccc(Cl)c(Cl)c1)N[C@@H]1CC[C@H](CCn2cc(C3CCCCC3)nn2)O[C@H]1CO
[8]
  AC50: 19.7 µM (active)

## N#C/C(=C\NC(=S)c1ccncc1)c1nc2ccccc2s1
[10]
  AC50: 6.31 µM (inconclusive)
[5]
  AC50: 2.51 µM (inconclusive)

## COCCn1c(=O)c(-c2ccc(F)cc2)nc2cnc(OCc3ccccc3)nc21
[9]
  AC50: 10 µM (inconclusive)
[10]
  AC50: 20 µM (inconclusive)
[5]
  AC50: 12.6 µM (inconclusive)

## CCc1ccc(C(=O)NNc2ccc(F)cc2F)cc1
[3]
  EC50: > 38 µM (not active)
[4]
  EC50: > 150 µM (inactive)

## Cc1ccc(N2C(=O)CSC2c2cccnc2)c(Cl)c1 (stereo unspecified)
[17]
  AC50: > 260 µM (inactive)
